± gives the standard deviation of the averaged measurements.
Legend:
Conditions in all cases: 72 h
Caco-2 [1] = experiment: cell viability relative to DMSO; higher = less toxic
Calu-3 [2] = experiment: as above
HepG2 [3] = experiment: as above
U2OS [4] = experiment: as above
Vero E6 [5] = experiment: as above
Caco-2 [6] = experiment: relative viability EC50 (midpoint between 100% and the lowest measured viability); higher = less toxic
Calu-3 [7] = experiment: as above
HepG2 [8] = experiment: as above
U2OS [9] = experiment: as above
Vero E6 [10] = experiment: as above
Caco-2 [11] = experiment: drug sensitivity score (DSS) for viability; higher = more toxic; extreme values may be limits of the assay
Calu-3 [12] = experiment: as above
HepG2 [13] = experiment: as above
U2OS [14] = experiment: as above
Vero E6 [15] = experiment: as above

Row | Compound | cell viability (Caco-2 [1]; 1 nM) | cell viability (Caco-2 [1]; 10 nM) | cell viability (Caco-2 [1]; 100 nM) | cell viability (Caco-2 [1]; 1000 nM) | cell viability (Caco-2 [1]; 10000 nM) | cell viability (Calu-3 [2]; 1 nM) | cell viability (Calu-3 [2]; 10 nM) | cell viability (Calu-3 [2]; 100 nM) | cell viability (Calu-3 [2]; 1000 nM) | cell viability (Calu-3 [2]; 10000 nM) | cell viability (HepG2 [3]; 1 nM) | cell viability (HepG2 [3]; 10 nM) | cell viability (HepG2 [3]; 100 nM) | cell viability (HepG2 [3]; 1000 nM) | cell viability (HepG2 [3]; 10000 nM) | cell viability (U2OS [4]; 1 nM) | cell viability (U2OS [4]; 10 nM) | cell viability (U2OS [4]; 100 nM) | cell viability (U2OS [4]; 1000 nM) | cell viability (U2OS [4]; 10000 nM) | cell viability (Vero E6 [5]; 1 nM) | cell viability (Vero E6 [5]; 10 nM) | cell viability (Vero E6 [5]; 100 nM) | cell viability (Vero E6 [5]; 1000 nM) | cell viability (Vero E6 [5]; 10000 nM) | relative viability EC50 (Caco-2 [6]) | relative viability EC50 (Calu-3 [7]) | relative viability EC50 (HepG2 [8]) | relative viability EC50 (U2OS [9]) | relative viability EC50 (Vero E6 [10]) | drug sensitivity score (Caco-2 [11]) | drug sensitivity score (Calu-3 [12]) | drug sensitivity score (HepG2 [13]) | drug sensitivity score (U2OS [14]) | drug sensitivity score (Vero E6 [15])
1 | CC1(C)S[C@@H]2[C@H](NC(=O)Cc3ccccc3)C(=O)N2[C@H]1C(=O)O [benzylpenicillin] | 80.1% | 101% | 97.6% | 95.3% | 106% | 88.5% | 104% | 98.8% | 93.4% | 94.2% | 95.9% | 94% | 116% | 99% | 98.2% | 96.6% | 101% | 101% | 104% | 104% | 99.5% | 97% | 99% | 98% | 107% | > 10 µM | > 10 µM | > 10 µM | > 10 µM | > 10 µM | 0 | 0 | 0 | 0 | 0
2 | CC1(C)Oc2ccc(C#N)cc2[C@H](N(Cc2ncc[nH]2)c2ccc(Cl)cc2)[C@H]1O | 106% | 101% | 98% | 103% | 89.4% | 103% | 104% | 105% | 102% | 99.2% | 107% | 109% | 98% | 103% | 114% | 101% | 103% | 103% | 103% | 96.8% | 93.8% | 93% | 95.2% | 97.2% | 102% | > 10 µM | > 10 µM | > 10 µM | > 10 µM | > 10 µM | 0 | 0 | 0 | 0 | 0
3 | Cn1cc([S+](C)[O-])c(=O)c2ccc(F)cc21 (stereo not given) [flosequinan] | 110% | 95.3% | 107% | 102% | 95.7% | 98.6% | 95.5% | 99.6% | 101% | 110% | 103% | 97.9% | 97% | 95.4% | 86.9% | 104% | 95.3% | 98.5% | 99% | 102% | 97.5% | 97.7% | 98.8% | 96.3% | 96.4% | > 10 µM | > 10 µM | > 10 µM | > 10 µM | > 10 µM | 0 | 0 | 0.1 | 0 | 0
4 | NC(=O)N1c2ccccc2CC(O)c2ccccc21 (stereo not given) [licarbazepine] | 98.3% | 99.5% | 97.8% | 100% | 91.5% | 98.3% | 99.9% | 96.3% | 105% | 92.1% | 96.3% | 96.4% | 93.5% | 108% | 99% | 108% | 97.5% | 98.8% | 101% | 102% | 101% | 102% | 104% | 97.6% | 97.8% | > 10 µM | > 10 µM | > 10 µM | > 10 µM | > 10 µM | 0 | 0 | 0 | 0 | 0
5 | CN1CCN(c2ccc3ccccc3n2)CC1 [N-methylquipazine] | 102% | 91.4% | 104% | 97.3% | 102% | 106% | 96.2% | 99.2% | 96.4% | 95.1% | 99.4% | 96.1% | 98% | 102% | 111% | 101% | 99.4% | 102% | 96.8% | 98.9% | 97.7% | 97.8% | 95.7% | 97.1% | 111% | > 10 µM | > 10 µM | > 10 µM | > 10 µM | > 10 µM | 0 | 0 | 0 | 0 | 0
6 | CCOC(=O)Nc1ccc2c(c1)N(C(=O)CCN1CCOCC1)c1ccccc1S2 [moracizine] | 101% | 109% | 96.3% | 96.8% | 80.8% | 103% | 95.3% | 98.8% | 95.3% | 98.3% | 94.6% | 92.6% | 97.8% | 91.6% | 99.4% | 98.4% | 104% | 101% | 99% | 96.6% | 97.1% | 101% | 96.9% | 98.8% | 96.2% | > 10 µM | > 10 µM | > 10 µM | > 10 µM | > 10 µM | 0.9 | 0 | 0 | 0 | 0
7 | COc1cccc(/C=N/N=C/c2cccc(OC)c2)c1 [DMeOB] | 96.4% | 106% | 96.9% | 104% | 103% | 101% | 114% | 99.6% | 111% | 105% | 110% | 93.3% | 103% | 98.4% | 94.9% | 101% | 102% | 97.5% | 107% | 99.3% | 109% | 99.8% | 103% | 99.2% | 103% | > 10 µM | > 10 µM | > 10 µM | > 10 µM | > 10 µM | 0 | 0 | 0 | 0 | 0
8 | O=C1NC(=O)C(c2ccccc2)(c2ccccc2)N1 [phenytoin] | 97.9% | 95.9% | 88.6% | 101% | 99.3% | 102% | 96.1% | 97.8% | 93.5% | 84.9% | 108% | 94.8% | 99.5% | 95.8% | 101% | 97.7% | 104% | 96% | 101% | 98.9% | 96% | 103% | 100% | 98.4% | 100% | > 10 µM | > 10 µM | > 10 µM | > 10 µM | > 10 µM | 0 | 0.3 | 0 | 0 | 0
9 | CC(C)(N)CC12CC3CC(CC(C3)C1)C2 [somantadine] | 100% | 95.9% | 104% | 96.2% | 93.4% | 100% | 99.8% | 99.1% | 94.3% | 96.8% | 100% | 101% | 95.5% | 84.8% | 87.4% | 100% | 95.5% | 99.5% | 91.7% | 92.4% | 97.1% | 98.3% | 100% | 100% | 96.1% | > 10 µM | > 10 µM | > 10 µM | > 10 µM | > 10 µM | 0 | 0 | 1.9 | 0 | 0
10 | NC(=O)N/N=C/c1ccc([N+](=O)[O-])o1 [nitrofurazone] | 93.8% | 101% | 98.8% | 101% | 87.2% | 104% | 96.9% | 105% | 89% | 95.1% | 92.5% | 101% | 110% | 108% | 87.4% | 101% | 98.1% | 103% | 100% | 103% | 96.8% | 101% | 95.1% | 97.7% | 106% | > 10 µM | > 10 µM | > 10 µM | > 10 µM | > 10 µM | 0.1 | 0.2 | 0 | 0 | 0
11 | O=C1c2cccnc2OC[C@@H]2CCCN12 | 108% | 99.6% | 100% | 95.6% | 100% | 103% | 87.1% | 98.9% | 101% | 91.1% | 96.9% | 98.8% | 96.1% | 102% | 99.2% | 103% | 98.6% | 95.9% | 97.7% | 96.4% | 93.8% | 98.5% | 90.5% | 91% | 103% | > 10 µM | > 10 µM | > 10 µM | > 10 µM | > 10 µM | 0 | 0 | 0 | 0 | 0
12 | CCc1nc(C)ccc1O [emoxipin] | 95.1% | 99.6% | 98.1% | 98.6% | 90.9% | 105% | 111% | 104% | 96.8% | 105% | 110% | 108% | 97.4% | 99.6% | 108% | 102% | 101% | 106% | 97% | 103% | 98.1% | 102% | 97.3% | 92.7% | 93.2% | > 10 µM | > 10 µM | > 10 µM | > 10 µM | > 10 µM | 0 | 0 | 0 | 0 | 0
13 | Cc1ccc(O)c(N=Nc2ccccc2)n1 [SIB-1757] | 92.4% | 103% | 98.6% | 103% | 86.2% | 99.8% | 107% | 111% | 99.9% | 92.8% | 108% | 110% | 107% | 108% | 94.5% | 104% | 107% | 102% | 103% | 95.9% | 98.1% | 94.6% | 96.7% | 99% | 92.5% | > 10 µM | > 10 µM | > 10 µM | > 10 µM | > 10 µM | 0.1 | 0 | 0 | 0 | 0
14 | CCC(=O)NC[C@H](Cc1ccc(OCCc2nc(-c3ccccc3)oc2C)cc1)N/C(C)=C\C(=O)c1ccc(C(F)(F)F)cc1 [GW-6471] | 94.5% | 102% | 106% | 97.8% | 93.6% | 101% | 94.7% | 103% | 97.4% | 102% | 97.3% | 99.5% | 93.8% | 101% | 109% | 96.6% | 104% | 101% | 100% | 95.4% | 98.6% | 97.6% | 96.1% | 89.3% | 94.8% | > 10 µM | > 10 µM | > 10 µM | > 10 µM | > 10 µM | 0 | 0 | 0 | 0 | 0
15 | O=C([O-])C(O)[C@H](O)[C@@H](O)[C@H](O)[C@H](O)CO.O=C([O-])C(O)[C@H](O)[C@@H](O)[C@H](O)[C@H](O)CO.[Ca+2] (stereo not given in full) [calcium-gluceptate] | 95.7 ± 8% | 93.6 ± 0.71% | 92.9 ± 8.3% | 98.8 ± 2.1% | 103.5 ± 0.14% | 138 ± 44% | 99 ± 6.2% | 101 ± 7.8% | 94.2 ± 20% | 97.4 ± 1.1% | 100 ± 12% | 95.1 ± 23% | 103 ± 6.7% | 100 ± 4% | 100 ± 8% | 98.9% | 89.9% | 101% | 95.3% | 106% | 97.2 ± 7.6% | 85.1 ± 15% | 91.5 ± 2.7% | 82.3 ± 16% | 108.3 ± 0.49% | > 10 µM | > 10 µM | > 10 µM | > 10 µM | > 10 µM | 0 | 0 | 0 | 0 | 0
